One experiment has as its system erythema. The experiment can be described thus: Ultra-violet erythema test, oral administration. The format is in vivo, Hartley rats. Conditions: ten animals per group; oral suspension, half one hour before and half just after ultra-violet radiation; erythema scored two hours later; effective when total of 3 points below 1.5; read-out: Score. The method, then: Ten male 5 week old Hartley rats, each weighing about 350 g., were used per group. The backs of each animal were depilated 24 hours before the test. An adhesive tape with 3 small holes of 9 mm. diameter was placed on the depilated skin and then the animal was exposed to ultra-violet radiation from an ultra-violet lamp (500 W, manufactured by Engelhard Hanovia Inc.) at a distance of 13 cm. for 80 seconds. Two hours later, the degree of erythema was estimated on the basis of the following scores: • 1.0 : eryhthema with clear border, • 0.5 : erythema with unclear border, • 0.0 : scarcely any erythema.
The valuation was determined as follows:
Each dosage of the test compound was administered orally in a suspension form in 20 ml. of 0.5% aqueous methyl cellosolve aqueous solution. Half of the test sample was administered one hour before the radiation and the remaining half of the test solution was administered just after radiation.

Another experiment deals with strip of stomach fundus. Description: Contraction of isolated stomach fundus strip induced by arachidonic acid. As to conditions: Rattus norvegicus, 0.25 h. The experiment is classed as cell-based, Sprague-Dawley rats. The method, then: The stomach was removed from Sprague-Dawley rats, weighing about 180 g., after the animals were fasted overnight. A strip of stomach fundus was suspended under initial tension of 0.6 g. in a 10 ml. organ bath containing Tyrode solution. Arachidonic acid (1.0 x 10^-5 g/ml.) was employed as the spasmogen. Several doses of the test compound were added to the individnal bath fluid 15 minutes before the addition of arachidonic acid. The value of contraction induced by arachidonic acid was measured and plotted as a dose-activity curve. The ED50 value of each test compound was obtained by interpolation from the dose-activity curve.

The mark [1] stands for this setting: arachidonic acid 1.0 x 10^-5 g/ml. as spasmogen, test compound added 15 minutes before, interpolated from dose-activity curve, read-out: ED50 (the source's name).

Values after ≈ are worked out from the molar mass of the structure shown. Structures can show the parent of a compound that is named as a salt. Where two headings read alike, the source gives them in different places.

`O=C(O)C(CO)c1ccc(C2CCCCC2)cc1` (centres unmarked) [Example 2, p-cyclohexyltropic acid]: the minimal effective dose in the experiment with erythema was 8 to 10 mg/kg. In addition, the IC50 in the experiment with strip of stomach fundus (setting [1]) came to 2.6 µg/mL (≈ 10.5 µM).
For `COCC(CO)c1ccc(C2CCCCC2)c(Cl)c1` (centres unmarked) [Example 23, 2-(3-chloro-4-cyclohexylphenyl)-3-methoxypropanol], the minimal effective dose in the experiment with erythema lay in the range of 8 to 10 mg/kg.
As for `O=C(O)C(CO)c1ccc(C2CCCCC2)c(Cl)c1` (centres unmarked) [Example 9, m-chloro-p-cyclohexyl tropic acid], in the experiment with erythema, the minimal effective dose is 8 to 10 mg/kg. The IC50 in the experiment on strip of stomach fundus (setting [1]) was found to be 0.26 µg/mL (≈ 0.919 µM).
`CC(=O)Oc1ccccc1C(=O)O` [aspirin, reference compound]: the IC50 in the experiment with strip of stomach fundus (read-out: ED50) worked out at 3.1 µg/mL (≈ 17.2 µM).
Turning to `CC(=O)CC(C(=O)O)c1ccc(C2CCCCC2)cc1` (centres unmarked) [15-(2), 2-(4-cyclohexylphenyl)-3-acetylpropionic acid], the minimal effective dose in the experiment with erythema lay within 8 to 10 mg/kg. Further, the IC50 in the experiment on strip of stomach fundus (setting [1]) stood at 3.2 µg/mL (≈ 11.7 µM).
Consider `CC(=O)OCC(COC(C)=O)c1ccc(C2CCCCC2)c(Cl)c1` [Example 8, 1,3-diacetoxy-2-(3-chloro-4-cyclohexylphenyl)propane], for which, in the experiment on erythema, the minimal effective dose fell in the range of 8 to 10 mg/kg.
Still for that read-out and setting: in the case of `CNCC(CO)c1ccc(C2CCCCC2)cc1` (centres unmarked) [21-(2), 2-(4-cyclohcxylphenyl)-3-mcthylaminopropanol hydrochloride] it was 8 to 10 mg/kg.
For the molecule `COCC(C(=O)O)c1ccc(C2CCCCC2)c(Cl)c1` (centres unmarked) [4-(3), sodium 2-(3-chloro-4-cyclohexylphenyl)-3-methoxypropionatc], in the experiment with erythema, the minimal effective dose is 8 to 10 mg/kg. Also, in the experiment on strip of stomach fundus (setting [1]), the IC50 came out at 0.084 µg/mL.
In the same order, the values of `CC(=O)CC(C(=O)O)c1ccc(C2CCCCC2)c(Cl)c1` (centres unmarked) [24-(2), 2-(3-chloro-4-cyclohexylphenyl)-3-acetylpropionic acid] are 8 to 10 mg/kg and 4.2 µg/mL (≈ 13.6 µM).
Taken in the same sequence, the figures for `CS(=O)(=O)NCC(CO)c1ccc(C2CCCCC2)cc1` (centres unmarked) [14-(3), 2-(4-cyclohexylphenyl)-3-mesylaminopropanol] were 8 to 10 mg/kg and 22 µg/mL (≈ 70.6 µM).
Taken in the same sequence, the figures for `COCC(C(=O)O)c1ccc(C2CCCCC2)cc1` (centres unmarked) [17-(2), 2-(4 cyclohexylphenyl)-3-methoxypropionic acid] were 8 to 10 mg/kg and 1.3 µg/mL (≈ 4.96 µM).
Regarding `COC(=O)C(CN1CCCCC1)c1ccc(C2CCCCC2)c(Cl)c1` (centres unmarked) [Example 11, methyl 2-(3-chloro-4-cyclohexylphcnyl)-3-piperidinopropionate hydrochloride], the minimal effective dose with erythema was in the range of 8 to 10 mg/kg.
Same read-out and setting: in the case of `COCC(COC(=O)COc1ccc(Cl)cc1)c1ccc(C2CCCCC2)cc1` (centres unmarked) [Example 20, 1-(4-chlorophenoxyacetoxy)-2-(4-cyclohexylphenyl)-3-methoxypropane] it was 8 to 10 mg/kg.
As to `COC(=O)C(COC(C)=O)c1ccc(C2CCCCC2)c(Cl)c1` (centres unmarked) [5-(3), methyl 3-acetoxy-2-(3-chloro-4-cyclohexylphenyl) propionate], in the experiment on erythema, the minimal effective dose was 8 to 10 mg/kg. In addition, the IC50 in the experiment on strip of stomach fundus (setting [1]) amounted to 0.12 µg/mL (≈ 0.354 µM).
With `CNCC(C(=O)O)c1ccc(C2CCCCC2)cc1` (centres unmarked) [Example 22, sodium 2-(4-cyclohexylphenyl)-3-methylaminopropionate monohydrate], in the experiment with erythema, the minimal effective dose fell in the range of 8 to 10 mg/kg.
As for `CC(=O)CC(CO)c1ccc(C2CCCCC2)cc1` (centres unmarked) [16-(3), 2-(4-cyclohexylphenyl)-3-acetylpropanol], the minimal effective dose with erythema was in the range of 8 to 10 mg/kg.
Consider `CCCOCC(C(=O)[O-])c1ccc(C2CCCCC2)cc1.[Na+]` (centres unmarked) [12-(2), sodium 2-(4-cyclohexylphenyl)-3-propoxypropionate], for which the minimal effective dose with erythema lay in the range of 8 to 10 mg/kg. The IC50 in the experiment with strip of stomach fundus (read-out: ED50) was 2.6 µg/mL.
On to `COCC(CO)c1ccc(C2CCCCC2)c(Cl)c1` (centres unmarked) [7-(2), 2-(3-chloro-4-cyclohexylphenyl)-3-methoxypropanol], for which the IC50 in the experiment with strip of stomach fundus (setting [1]) worked out at 0.5 µg/mL (≈ 1.77 µM).
Consider `OCC(CO)c1ccc(C2CCCCC2)c(Cl)c1` [Example 7-(1), 2-(3-chloro-4-cyclohexylphenyl)propane-1,3-diol], for which the minimal effective dose with erythema lay in the range of 8 to 10 mg/kg. In addition, the IC50 with strip of stomach fundus (setting [1]) stood at 1.2 µg/mL (≈ 4.46 µM).

The values above are taken from patent EP0000644A2, “Lower cycloalkyl substituted-benzene derivatives, the preparation thereof and their pharmaceutical compositions” (FUJISAWA PHARMACEUTICAL CO., LTD., priority 1977, dated 1979).
